Measured values taken from patent US20100152434A1, “Protein Kinase-binding Nucleosides and Associated Methods” (priority 2007, published 2010).
Like-named read-outs stand apart in the source and are kept apart here.

Legend:
KM12 [1] = system: KM12
IGROV1 [2] = system: IGROV1
788-0 = conditions: 786-0
HOP-62 = experiment: cells; conditions: Homo sapiens
HOP-92 = experiment: cells; conditions: Homo sapiens
HCT-116 = experiment: cells; conditions: Homo sapiens
KM12 [3] = experiment: cells; conditions: Homo sapiens
SF-539 = experiment: cells; conditions: Homo sapiens
SK-MEL-2 = experiment: cells; conditions: Homo sapiens
IGROV1 [4] = experiment: cells; conditions: Homo sapiens
OVCAR-4 = experiment: cells; conditions: Homo sapiens
SK-OV-3 = experiment: cells; conditions: Homo sapiens
A498 = experiment: cells; conditions: Homo sapiens
MDA-MB-435 = experiment: cells; conditions: Homo sapiens
T-47D = experiment: cells; conditions: Homo sapiens, T47D

`CNC(=O)NC[C@H]1O[C@@H](n2cnc3c(NC(=O)Nc4ccccc4)ncnc32)[C@H](O[Si](C)(C)C(C)(C)C)[C@@H]1CC(=O)N(C)OC` [Compound 13, 2′-O-(tert-Butyldimethylsilyl)-3′,5′-dideoxy-3′-[(N-methoxy-N-methylcarboxamido)methyl]-5′-[(N-methylcarbamoyl)amino]-N^6-(N-phenylcarbamoyl)adenosine] was tested, and the TGI (RPMI-8226) was 5.40E−6 Molar, the “Percent Growth” value (RPMI-8226; Log10 Concentration −4.0) was −16% and the “Percent Growth” value (RPMI-8226; Log10 Concentration −5.0) was −25%. For the same molecule, the “Percent Growth” value (RPMI-8226; Log10 Concentration −6.0) was 69%, the “Percent Growth” value (RPMI-8226; Log10 Concentration −7.0) was 91% and the “Percent Growth” value (RPMI-8226; Log10 Concentration −8.0) was 80%. For the same molecule, the TGI (A549/ATCC) was >1.00E−4 Molar, the “Percent Growth” value (A549/ATCC; Log10 Concentration −4.0) was 27% and the “Percent Growth” value (A549/ATCC; Log10 Concentration −5.0) was 49%. For the same molecule, the “Percent Growth” value (A549/ATCC; Log10 Concentration −6.0) was 97%, the “Percent Growth” value (A549/ATCC; Log10 Concentration −7.0) was 100% and the “Percent Growth” value (A549/ATCC; Log10 Concentration −8.0) was 97%. The TGI (NCI-H522) was >1.00E−4 Molar, the “Percent Growth” value (NCI-H522; Log10 Concentration −4.0) was 31% and the “Percent Growth” value (NCI-H522; Log10 Concentration −5.0) was 51%. For the same molecule, the “Percent Growth” value (NCI-H522; Log10 Concentration −6.0) was 84%, the “Percent Growth” value (NCI-H522; Log10 Concentration −7.0) was 87% and the “Percent Growth” value (NCI-H522; Log10 Concentration −8.0) was 90%. The TGI (HT29) was >1.00E−4 Molar, the “Percent Growth” value (HT29; Log10 Concentration −4.0) was 17% and the “Percent Growth” value (HT29; Log10 Concentration −5.0) was 32%. The “Percent Growth” value (HT29; Log10 Concentration −6.0) was 100%, the “Percent Growth” value (HT29; Log10 Concentration −7.0) was 107% and the “Percent Growth” value (HT29; Log10 Concentration −8.0) was 104%. For the same molecule, the TGI (KM12 [1]) was >1.00E−4 Molar, the “Percent Growth” value (KM12 [1]; Log10 Concentration −4.0) was 30% and the “Percent Growth” value (KM12 [1]; Log10 Concentration −5.0) was 62%. The “Percent Growth” value (KM12 [1]; Log10 Concentration −6.0) was 106%, the “Percent Growth” value (KM12 [1]; Log10 Concentration −7.0) was 108% and the “Percent Growth” value (KM12 [1]; Log10 Concentration −8.0) was 101%. The TGI (SF-268) was >1.00E−4 Molar, the “Percent Growth” value (SF-268; Log10 Concentration −4.0) was 20% and the “Percent Growth” value (SF-268; Log10 Concentration −5.0) was 46%. The “Percent Growth” value (SF-268; Log10 Concentration −6.0) was 91%, the “Percent Growth” value (SF-268; Log10 Concentration −7.0) was 105% and the “Percent Growth” value (SF-268; Log10 Concentration −8.0) was 98%. The TGI (SF-295) was >1.00E−4 Molar, the “Percent Growth” value (SF-295; Log10 Concentration −4.0) was 20% and the “Percent Growth” value (SF-295; Log10 Concentration −5.0) was 48%. For the same molecule, the “Percent Growth” value (SF-295; Log10 Concentration −6.0) was 98%, the “Percent Growth” value (SF-295; Log10 Concentration −7.0) was 93% and the “Percent Growth” value (SF-295; Log10 Concentration −8.0) was 93%. The TGI (MALME-3M) was >1.00E−4 Molar, the “Percent Growth” value (MALME-3M; Log10 Concentration −4.0) was 23% and the “Percent Growth” value (MALME-3M; Log10 Concentration −5.0) was 52%. For the same molecule, the “Percent Growth” value (MALME-3M; Log10 Concentration −6.0) was 93%, the “Percent Growth” value (MALME-3M; Log10 Concentration −7.0) was 88% and the “Percent Growth” value (MALME-3M; Log10 Concentration −8.0) was 103%. The TGI (IGROV1 [2]) was 6.57E−5 Molar, the “Percent Growth” value (IGROV1 [2]; Log10 Concentration −4.0) was −6% and the “Percent Growth” value (IGROV1 [2]; Log10 Concentration −5.0) was 26%. The “Percent Growth” value (IGROV1 [2]; Log10 Concentration −6.0) was 82%, the “Percent Growth” value (IGROV1 [2]; Log10 Concentration −7.0) was 89% and the “Percent Growth” value (IGROV1 [2]; Log10 Concentration −8.0) was 89%. The TGI (OVCAR-3) was >1.00E−4 Molar, the “Percent Growth” value (OVCAR-3; Log10 Concentration −4.0) was 6% and the “Percent Growth” value (OVCAR-3; Log10 Concentration −5.0) was 41%. For the same molecule, the “Percent Growth” value (OVCAR-3; Log10 Concentration −6.0) was 100%, the “Percent Growth” value (OVCAR-3; Log10 Concentration −7.0) was 107% and the “Percent Growth” value (OVCAR-3; Log10 Concentration −8.0) was 95%. The TGI (788-0) was >1.00E−4 Molar, the “Percent Growth” value (788-0; Log10 Concentration −4.0) was 8% and the “Percent Growth” value (788-0; Log10 Concentration −5.0) was 48%. For the same molecule, the “Percent Growth” value (788-0; Log10 Concentration −6.0) was 93%, the “Percent Growth” value (788-0; Log10 Concentration −7.0) was 92% and the “Percent Growth” value (788-0; Log10 Concentration −8.0) was 95%. The TGI (DU-145) was >1.00E−4 Molar, the “Percent Growth” value (DU-145; Log10 Concentration −4.0) was 16% and the “Percent Growth” value (DU-145; Log10 Concentration −5.0) was 60%. For the same molecule, the “Percent Growth” value (DU-145; Log10 Concentration −6.0) was 104%, the “Percent Growth” value (DU-145; Log10 Concentration −7.0) was 112% and the “Percent Growth” value (DU-145; Log10 Concentration −8.0) was 107%. For the same molecule, the TGI (MCF7) was >1.00E−4 Molar, the “Percent Growth” value (MCF7; Log10 Concentration −5.0) was 34% and the “Percent Growth” value (MCF7; Log10 Concentration −6.0) was 96%. The “Percent Growth” value (MCF7; Log10 Concentration −7.0) was 95%, the “Percent Growth” value (MCF7; Log10 Concentration −8.0) was 91% and the TGI (BT-549) was >1.00E−4 Molar. The “Percent Growth” value (BT-549; Log10 Concentration −4.0) was 26%, the “Percent Growth” value (BT-549; Log10 Concentration −5.0) was 70% and the “Percent Growth” value (BT-549; Log10 Concentration −6.0) was 96%. The “Percent Growth” value (BT-549; Log10 Concentration −7.0) was 98%, the “Percent Growth” value (BT-549; Log10 Concentration −8.0) was 95% and the GI50 (HOP-62; HOP-62) was 24.9 µM. For the same molecule, the CC50 (HOP-62; HOP-62, read-out: LC50) was > 100 µM, the GI50 (HOP-92; HOP-92) was 2.71 µM and the CC50 (HOP-92; HOP-92, read-out: LC50) was > 100 µM. The GI50 (HCT-116; HCT-116) was 4.2 µM, the CC50 (HCT-116; HCT-116, read-out: LC50) was > 100 µM and the GI50 (KM12 [3]; KM12) was 23.9 µM. For the same molecule, the CC50 (KM12 [3]; KM12, read-out: LC50) was > 100 µM, the GI50 (SF-539; SF-539) was 22.3 µM and the CC50 (SF-539; SF-539, read-out: LC50) was > 100 µM. For the same molecule, the GI50 (SK-MEL-2; SK-MEL-2) was 14.9 µM, the CC50 (SK-MEL-2; SK-MEL-2, read-out: LC50) was > 100 µM and the GI50 (IGROV1 [4]; IGROV-1) was 3.72 µM. For the same molecule, the CC50 (IGROV1 [4]; IGROV-1, read-out: LC50) was > 100 µM, the GI50 (OVCAR-4; OVCAR-4) was 53 µM and the CC50 (OVCAR-4; OVCAR-4, read-out: LC50) was > 100 µM. The GI50 (SK-OV-3; SK-OV-3) was 52.7 µM, the CC50 (SK-OV-3; SK-OV-3, read-out: LC50) was > 100 µM and the GI50 (A498; A498) was 3.87 µM. For the same molecule, the CC50 (A498; A498, read-out: LC50) was > 100 µM, the GI50 (MDA-MB-435; MDA-MB-435) was 10.9 µM and the CC50 (MDA-MB-435; MDA-MB-435, read-out: LC50) was > 100 µM. For the same molecule, the GI50 (T-47D) was 13.9 µM and the CC50 (T-47D; read-out: LC50) was > 100 µM.
